Laboratory results: ChEMBL document CHEMBL1201862, “PubChem BioAssay data set” (2004)
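96-well plates; 48 h exposure; 5 concentrations. Endpoints by linear interpolation between flanking doses. Not reached: highest tested concentration assigned. GI50 = concentration required for 50% inhibition of growth.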 Calls of active or inactive are those of the source. No stated cut-off is given here; in the data, active = GI50 up to about 1.1 µM and inactive = higher.

How the values were obtained:
Test in all cases: NCI-60 cell line screen, 48 h
NCI/ADR-RES = test system: NCI/ADR-RES
DU-145 = test system: DU-145
OVCAR-5 = test system: OVCAR-5
SF-295 = test system: SF-295
SR = test system: SR
MCF7 = test system: MCF7
A498 = test system: A498
OVCAR-8 = test system: OVCAR-8
HOP-92 = test system: HOP-92
NCI-H226 = test system: NCI-H226
U-251 = test system: U-251
Malme-3M = test system: Malme-3M
Hs-578T = test system: Hs-578T
SW-620 = test system: SW-620
MDA-N = test system: MDA-N
MDA-MB-435 = test system: MDA-MB-435
SK-MEL-2 = test system: SK-MEL-2
K562 = test system: K562
UACC-62 = test system: UACC-62
SNB-19 = test system: SNB-19
SN12C = test system: SN12C
HCT-116 = test system: HCT-116
SF-539 = test system: SF-539
HOP-62 = test system: HOP-62
HCC 2998 = test system: HCC 2998
M14 = test system: M14
BT-549 = test system: BT-549
SF-268 = test system: SF-268
SK-MEL-5 = test system: SK-MEL-5
EKVX = test system: EKVX
NCI-H460 = test system: NCI-H460
A549 = test system: A549
COLO 205 = test system: COLO 205
LOX IMVI = test system: LOX IMVI
UACC-257 = test system: UACC-257
MOLT-4 = test system: MOLT-4
IGROV-1 = test system: IGROV-1
HCT-15 = test system: HCT-15
TK-10 = test system: TK-10
UO-31 = test system: UO-31
NCI-H23 = test system: NCI-H23
CCRF-CEM = test system: CCRF-CEM
CAKI-1 = test system: CAKI-1
SNB-75 = test system: SNB-75
HT-29 = test system: HT-29
HL-60 = test system: HL-60
T47D = test system: T47D
SK-MEL-28 = test system: SK-MEL-28
RXF 393 = test system: RXF 393
OVCAR-4 = test system: OVCAR-4
PC-3 = test system: PC-3
OVCAR-3 = test system: OVCAR-3
MDA-MB-231 = test system: MDA-MB-231
SK-OV-3 = test system: SK-OV-3

## CO/N=C1/c2sccc2[C@H](NC(=O)C(Cc2ccccc2)NC(=O)OC(C)(C)C)[C@@H]1O (some centres undefined)
NCI/ADR-RES
  GI50: > 100 µM (inactive)
DU-145
  GI50: > 100 µM (inactive)
OVCAR-5
  GI50: > 100 µM (inactive)
SF-295
  GI50: > 100 µM (inactive)
SR
  GI50: 49.5 µM (inactive)
MCF7
  GI50: > 100 µM (inactive)
A498
  GI50: > 100 µM (inactive)
OVCAR-8
  GI50: > 100 µM (inactive)
HOP-92
  GI50: > 100 µM (inactive)
NCI-H226
  GI50: > 100 µM (inactive)
U-251
  GI50: > 100 µM (inactive)
Malme-3M
  GI50: > 100 µM (inactive)
Hs-578T
  GI50: > 100 µM (inactive)
SW-620
  GI50: > 100 µM (inactive)
MDA-N
  GI50: > 100 µM (inactive)
MDA-MB-435
  GI50: > 100 µM (inactive)
SK-MEL-2
  GI50: > 100 µM (inactive)
K562
  GI50: > 100 µM (inactive)
UACC-62
  GI50: > 100 µM (inactive)
SNB-19
  GI50: > 100 µM (inactive)
SN12C
  GI50: > 100 µM (inactive)
HCT-116
  GI50: > 100 µM (inactive)
SF-539
  GI50: > 100 µM (inactive)
HOP-62
  GI50: > 100 µM (inactive)
HCC 2998
  GI50: > 100 µM (inactive)
M14
  GI50: > 100 µM (inactive)
BT-549
  GI50: > 100 µM (inactive)
SF-268
  GI50: > 100 µM (inactive)
SK-MEL-5
  GI50: > 100 µM (inactive)
EKVX
  GI50: > 100 µM (inactive)
NCI-H460
  GI50: > 100 µM (inactive)
A549
  GI50: > 100 µM (inactive)
COLO 205
  GI50: > 100 µM (inactive)
LOX IMVI
  GI50: > 100 µM (inactive)
UACC-257
  GI50: > 100 µM (inactive)
MOLT-4
  GI50: 93.3 µM (inactive)
IGROV-1
  GI50: > 100 µM (inactive)
HCT-15
  GI50: > 100 µM
TK-10
  GI50: > 100 µM (inactive)
UO-31
  GI50: 51.4 µM (inactive)
NCI-H23
  GI50: > 100 µM (inactive)
CCRF-CEM
  GI50: > 100 µM (inactive)
CAKI-1
  GI50: > 100 µM (inactive)
SNB-75
  GI50: > 100 µM (inactive)
HT-29
  GI50: > 100 µM (inactive)
HL-60
  GI50: 85.1 µM (inactive)
T47D
  GI50: 63.2 µM (inactive)
SK-MEL-28
  GI50: > 100 µM (inactive)
RXF 393
  GI50: > 100 µM (inactive)
OVCAR-4
  GI50: 45.6 µM (inactive)
PC-3
  GI50: > 100 µM (inactive)
OVCAR-3
  GI50: > 100 µM (inactive)
MDA-MB-231
  GI50: > 100 µM (inactive)
SK-OV-3
  GI50: > 100 µM (inactive)
